Data taken from ChEMBL document CHEMBL1134463 (2001).
Calls of active or inactive are those of the source. The rule behind the calls is not given here.

Columns and labels:
[1] = target: Neuronal acetylcholine receptor; alpha4/beta2 (Homo sapiens) (UniProt P17787+P43681); experiment: Agonistic activity against rat Nicotinic acetylcholine receptor alpha4-beta2 expressed in Xenopus oocytes; NA=inactive; type: functional, cell-based; settings: Oocyte
[2] = target: T1, Neuronal acetylcholine receptor; alpha3/beta4 (Homo sapiens) (UniProt P30926+P32297); experiment: Agonistic activity against Alpha3 beta4 Nicotinic receptor from Xenopus oocytes expressing recombinant nAChR from rat; NA=inactive; type: functional, cell-based; settings: Oocyte
[3] = target: Neuronal acetylcholine receptor subunit alpha-7 (Rattus norvegicus) (UniProt Q05941); experiment: Agonistic activity against rat nicotinic acetylcholine receptor alpha-7 expressed in Xenopus oocytes; NA=inactive; type: functional, cell-based; settings: Oocyte
Rattus norvegicus = organism: Rattus norvegicus; experiment: Agonistic activity against Rat muscle Nicotinic Receptor; type: functional
[4] = target: T1, Neuronal acetylcholine receptor; alpha3/beta4 (Homo sapiens); experiment: Agonistic activity against rat Alpha3 beta-4 Nicotinic Receptor expressed in Xenopus oocytes; type: functional, cell-based; settings: Oocyte
[5] = target: Neuronal acetylcholine receptor subunit alpha-7 (Rattus norvegicus) (UniProt Q05941); experiment: Agonistic activity against rat nicotinic acetylcholine receptor alpha-7 expressed in Xenopus oocytes; type: functional, cell-based; settings: Oocyte
[6] = tested on: Neuronal acetylcholine receptor alpha3/beta4 (Rattus norvegicus); experiment: Agonistic activity against Alpha3 beta-4 Nicotinic receptor from Xenopus oocytes expressing recombinant nAChR from rat; settings: Oocyte
[7] = tested on: Neuronal acetylcholine receptor alpha4/beta2 (Rattus norvegicus); experiment: Agonistic activity against rat Nicotinic acetylcholine receptor alpha4-beta2 expressed in Xenopus oocytes; settings: Oocyte
[8] = target: T1, Neuronal acetylcholine receptor; alpha3/beta4 (Homo sapiens); experiment: Agonistic activity against rat Alpha3 beta-4 Nicotinic Receptor expressed in Xenopus oocytes; NA=inactive; type: functional, cell-based; settings: Oocyte

Chain of Neuronal acetylcholine receptor subunit alpha-7 (Rattus norvegicus) (Q05941 whole entry): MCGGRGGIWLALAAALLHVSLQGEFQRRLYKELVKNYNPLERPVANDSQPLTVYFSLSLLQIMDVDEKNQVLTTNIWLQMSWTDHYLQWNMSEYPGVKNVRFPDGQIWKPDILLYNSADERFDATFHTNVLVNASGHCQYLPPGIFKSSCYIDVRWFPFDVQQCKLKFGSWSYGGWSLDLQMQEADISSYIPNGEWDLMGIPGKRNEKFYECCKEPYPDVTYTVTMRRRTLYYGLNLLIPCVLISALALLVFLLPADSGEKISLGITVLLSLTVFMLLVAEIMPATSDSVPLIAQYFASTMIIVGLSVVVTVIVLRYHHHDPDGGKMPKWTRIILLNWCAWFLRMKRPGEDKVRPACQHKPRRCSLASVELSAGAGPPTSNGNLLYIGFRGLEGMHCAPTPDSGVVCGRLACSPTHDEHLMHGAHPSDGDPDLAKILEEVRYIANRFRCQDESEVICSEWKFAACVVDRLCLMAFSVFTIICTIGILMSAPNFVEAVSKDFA

Compound | Activity [3] | Activity (Rattus norvegicus) [µM] | Activity [5] [µM] | Activity [7] [µM] | also measured
FC(F)(F)c1cc(C2CC3CCC2N3)c(C(F)(F)F)nn1 (stereo not given) | inactive |  |  |  | Activity [1]: inactive; Activity [2]: inactive
Clc1ccc(C2CC3CCC2N3)cn1 (racemic) [EPIBATIDINE] |  | 0.03 | 0.5 |  | Activity [4]: 0.005 µM
CC(=O)OCC[N+](C)(C)C [ACETYLCHOLINE] |  | 0.1 | 50 |  | 
c1cc(C2CC3CCC2N3)cnn1 (stereo not given) |  | 0.16 | 40 | 0.02 | Activity [6]: 0.16 µM
CN1CCC[C@H]1c1cccnc1.O=C(O)C(O)C(O)C(=O)O.O=C(O)C(O)C(O)C(=O)O |  | 6.3 | 12.6 |  | 
CCOC(=O)N1C2CC[C@@H]1CC2c1cc(Cl)nnc1Cl (stereo not given in full) | inactive |  |  |  | Activity [1]: inactive; Activity [8]: inactive
CCOC(=O)N1C2CC[C@@H]1CC2c1ccnnc1 (stereo not given in full) | inactive | >100 |  | > 100 | Activity [2]: inactive
CN1C2CC[C@@H]1CC2c1ccnnc1 (stereo not given in full) |  | 0.2 | 25 | 0.013 | Activity [6]: 0.32 µM
